Assay results as given in patent US20260308145A1, “CDK2 INHIBITORS AND METHODS OF USING SAME” (Shenzhen lonova Life Science Co., Ltd., priority 2023, published 2026).

Columns and labels:
Type in all cases: biochemical
CDK1/cyclinB1 = target: T1, CDK1/cyclinB1 (Homo sapiens, UniProt P06493); assay: Cyclin-dependent kinase activity assay (continuous ATP coupling assay), CDK1/cyclinB1; conditions: CDK1/cyclinB1 10 nM, ATP 200 μM, Histone1 copeptide 100 μM, 15 min preincubation, pH 7.5, 1% DMSO
T1 construct: purchased Carna Biosciences 04-102
Description: (§1) Cyclin-dependent kinase activity assay was measured by continuous ATP coupling assay in which ADP generated by kinase catalyzed phosphorylation was converted back to ATP by consuming phosphoenolpyruvate (PEP) and NADH catalyzed by pyruvate kinase/lactate dehydrogenase (PK/LDH). The assay compositions (see, Table 1) consist of one of the kinases, including CDK1/cyclinB1, CDK2/cyclinE1, CDK4/cyclinD3, and CDK6/cyclinD3 at the designated concentration, ATP at the corresponding Km of the kinase, copeptide and the ATP coupling system of PEP, NADH and PK/LDH. The assay was conducted in a reaction buffer of 20 mM Tris (pH 7.5) with 50 mM NaCl, 0.5 mM DTT and 0.04% BSA, and results were monitored continuously by fluorescence decrease of NADH with excitation at 340 nm and emission at 460 nm. Linear regression of the resulting reaction time traces gave reaction velocities.
(§2) For inhibition assay, compounds were first serial diluted in a 1:3 ratio from 10 μM to 0.05 nM using 10× reaction buffer. One of the CDK kinase was then introduced to compounds solution and incubated for 15 min. Finally, the compositions of ATP coupling system were introduced to the resulting solution to initiate the reaction. The final reaction mixture was in 1× reaction assay buffer with 1% DMSO. The half-maximal inhibition concentrations (IC50) for compounds were determined by fitting the plots of reaction velocity against compound concentration with 4-variable IC50 equation. The inhibition constants (Ki) were determined by fitting the same plots with quadratic/Morrison equation. Data were analyzed using commercially available software Graphpad Prism.
(§3) Exemplary results are presented as calculated IC50 values. • A: IC50≤10 nM • B: IC50>10 nM and IC50<100 nM • C: IC50≥100 nM

CDK2/cyclinE1 = target: T2, CDK2/cyclinE1 (Homo sapiens, UniProt P24941); assay: Cyclin-dependent kinase activity assay (continuous ATP coupling assay), CDK2/cyclinE1; conditions: CDK2/cyclinE1 5 nM, ATP 300 μM, Rb copeptide 100 μM, 15 min preincubation, pH 7.5, 1% DMSO
T2 construct: purchased Carna Biosciences 04-165
Description: as §1, §2, §3

CDK4/cyclinD3 = target: T3, CDK4/cyclinD3 (Homo sapiens, UniProt P11802); assay: Cyclin-dependent kinase activity assay (continuous ATP coupling assay), CDK4/cyclinD3; conditions: CDK4/cyclinD3 60 nM, ATP 500 μM, Rb copeptide 500 μM, 15 min preincubation, pH 7.5, 1% DMSO
T3 construct: purchased Carna Biosciences 04-105
Description: as §1, §2, §3

CDK6/cyclinD3 = target: T4, CDK6/cyclinD3 (Homo sapiens, UniProt Q00534); assay: Cyclin-dependent kinase activity assay (continuous ATP coupling assay), CDK6/cyclinD3; conditions: CDK6/cyclinD3 25 nM, ATP 500 μM, Rb copeptide 500 μM, 15 min preincubation, pH 7.5, 1% DMSO
T4 construct: purchased Carna Biosciences 04-107
Description: as §1, §2, §3

T3 sequence (P11802 whole entry): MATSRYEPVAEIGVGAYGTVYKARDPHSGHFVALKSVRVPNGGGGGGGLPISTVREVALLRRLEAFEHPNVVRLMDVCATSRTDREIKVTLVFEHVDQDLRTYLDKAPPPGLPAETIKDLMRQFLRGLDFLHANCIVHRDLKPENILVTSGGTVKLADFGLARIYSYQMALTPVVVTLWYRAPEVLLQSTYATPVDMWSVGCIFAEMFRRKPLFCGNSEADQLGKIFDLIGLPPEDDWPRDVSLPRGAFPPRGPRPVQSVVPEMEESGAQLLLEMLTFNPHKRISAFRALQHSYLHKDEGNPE
T3 sequence (P30281 whole entry partner): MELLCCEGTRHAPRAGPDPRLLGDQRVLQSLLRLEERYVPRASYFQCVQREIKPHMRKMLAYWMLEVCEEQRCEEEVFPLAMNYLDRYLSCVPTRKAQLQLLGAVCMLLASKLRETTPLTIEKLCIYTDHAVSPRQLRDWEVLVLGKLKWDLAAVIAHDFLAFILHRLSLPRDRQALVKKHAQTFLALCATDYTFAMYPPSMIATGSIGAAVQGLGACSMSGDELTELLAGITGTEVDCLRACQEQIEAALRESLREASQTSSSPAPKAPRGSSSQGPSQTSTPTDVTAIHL
T1 sequence (P06493 whole entry): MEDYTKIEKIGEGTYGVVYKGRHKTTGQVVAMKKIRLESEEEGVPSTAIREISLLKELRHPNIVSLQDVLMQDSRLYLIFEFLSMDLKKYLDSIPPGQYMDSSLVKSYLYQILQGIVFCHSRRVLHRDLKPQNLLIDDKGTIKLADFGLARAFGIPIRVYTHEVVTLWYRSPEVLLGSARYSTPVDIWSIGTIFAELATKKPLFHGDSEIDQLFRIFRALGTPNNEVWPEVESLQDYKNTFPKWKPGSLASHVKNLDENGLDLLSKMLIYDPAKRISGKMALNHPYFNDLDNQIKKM
T1 sequence (P14635 whole entry partner): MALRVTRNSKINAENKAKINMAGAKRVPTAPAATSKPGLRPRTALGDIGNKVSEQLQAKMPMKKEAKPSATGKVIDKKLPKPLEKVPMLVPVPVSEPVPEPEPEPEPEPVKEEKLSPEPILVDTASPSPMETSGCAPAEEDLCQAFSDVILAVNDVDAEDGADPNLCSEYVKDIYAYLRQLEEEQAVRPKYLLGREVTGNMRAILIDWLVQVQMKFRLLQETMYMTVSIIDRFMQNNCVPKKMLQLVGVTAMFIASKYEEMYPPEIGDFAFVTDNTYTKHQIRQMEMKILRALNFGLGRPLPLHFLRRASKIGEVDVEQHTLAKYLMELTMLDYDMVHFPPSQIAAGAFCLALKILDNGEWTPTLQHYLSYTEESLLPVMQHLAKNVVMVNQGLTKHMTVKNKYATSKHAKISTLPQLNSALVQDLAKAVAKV
T4 sequence (Q00534 whole entry): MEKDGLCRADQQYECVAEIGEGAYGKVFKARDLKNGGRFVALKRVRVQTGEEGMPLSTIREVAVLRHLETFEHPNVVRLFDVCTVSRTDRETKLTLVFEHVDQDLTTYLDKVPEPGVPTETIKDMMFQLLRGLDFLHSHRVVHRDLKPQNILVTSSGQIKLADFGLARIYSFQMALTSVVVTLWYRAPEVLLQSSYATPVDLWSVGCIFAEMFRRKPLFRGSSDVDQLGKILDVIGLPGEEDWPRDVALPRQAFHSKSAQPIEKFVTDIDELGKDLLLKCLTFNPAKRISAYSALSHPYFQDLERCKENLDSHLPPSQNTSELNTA
T4 sequence (P30281 whole entry partner): as the sequence (P30281 whole entry partner) above

Row | SMILES | IC50 (CDK1/cyclinB1) [nM] | IC50 (CDK2/cyclinE1) [nM] | IC50 (CDK4/cyclinD3) [nM] | IC50 (CDK6/cyclinD3) [nM]
1 | CNS(=O)(=O)c1ccc(Nc2ncc(C(F)(F)F)c(-n3cc(C(C)(C)C#N)cn3)n2)cc1 [Example 49, 4-[[4-[4-(1-cyano-1-methyl-ethyl)pyrazol-1-yl]-5-(trifluoromethyl)pyrimidin-2-yl]amino]-N-methyl-benzene sulfonamide] | 10 to 100 | 10 to 100 | 10 to 100 | 10 to 100
2 | CNS(=O)(=O)c1ccc(Nc2ncc(C(F)(F)F)c(-n3cc(C4CC4)cn3)n2)cc1 [Example 50] | ≥ 100 | ≤ 10 | 10 to 100 | 10 to 100
3 | CNS(=O)(=O)c1ccc(Nc2ncc(C(F)(F)F)c(-n3cc(C4(C#N)CC4)cn3)n2)cc1 [Example 51, 4-[[4-[4-(1-cyanocyclopropyl)pyrazol-1-yl]-5-(trifluoromethyl)pyrimidin-2-yl]amino]-N-methyl-benzene sulfonamide] | ≥ 100 | 10 to 100 | ≥ 100 | ≥ 100
4 | [2H]C([2H])([2H])NS(=O)(=O)c1ccc(Nc2ncc(C(F)(F)F)c(-n3ccc(C(F)(F)F)n3)n2)cc1 [Example 54] | ≥ 100 | 10 to 100 | ≥ 100 | ≥ 100
5 | CNS(=O)(=O)c1ccc(Nc2ncc(C(F)(F)F)c(-n3ccc(C4CC4)n3)n2)cc1 [Example 56] | ≥ 100 | ≥ 100 | ≥ 100 | ≥ 100
6 | CNS(=O)(=O)c1ccc(Nc2ncc(C(F)(F)F)c(-n3nccc3C3CC3)n2)cc1 [Example 57] | ≥ 100 | 10 to 100 | ≥ 100 | ≥ 100
7 | [2H]C([2H])([2H])NS(=O)(=O)c1ccc(Nc2ncc(C(F)(F)F)c(-n3cc(CC(C)(C)O)cn3)n2)cc1 [Example 58] | 10 to 100 | ≤ 10 | 10 to 100 | 10 to 100
8 | CNS(=O)(=O)c1ccc(Nc2ncc(C(F)(F)F)c(-n3cc(C(C)(C)CO)cn3)n2)cc1 [Example 59] | 10 to 100 | ≤ 10 | 10 to 100 | 10 to 100
9 | CNS(=O)(=O)c1ccc(Nc2ncc(C(F)(F)F)c(-n3cc(C(C)(C)C(C)(C)O)cn3)n2)cc1 [Example 60] | 10 to 100 | 10 to 100 | 10 to 100 | ≥ 100
10 | [2H]C([2H])([2H])NS(=O)(=O)c1ccc(Nc2ncc(C(F)(F)F)c(-n3cc(CCC(C)(C)O)cn3)n2)cc1 [Example 61] | ≥ 100 | ≤ 10 | 10 to 100 | ≥ 100
11 | CNS(=O)(=O)c1ccc(Nc2ncc(F)c(-n3cc(CC(C)(C)O)cn3)n2)cc1 [Example 62] | ≥ 100 | 10 to 100 | 10 to 100 | ≥ 100
12 | CNS(=O)(=O)c1ccc(Nc2ncc(C)c(-n3cc(CC(C)(C)O)cn3)n2)cc1 [Example 63] | ≥ 100 | 10 to 100 | 10 to 100 | 10 to 100
13 | CNS(=O)(=O)c1ccc(Nc2ncc(C#N)c(-n3cc(CC(C)(C)O)cn3)n2)cc1 [Example 64] | ≥ 100 | ≤ 10 | 10 to 100 | 10 to 100
14 | CNS(=O)(=O)c1ccc(Nc2ncc(Cl)c(-n3cc(CC(C)(C)O)cn3)n2)cc1 [Example 65] | 10 to 100 | ≤ 10 | 10 to 100 | 10 to 100
15 | CNS(=O)(=O)c1ccc(Nc2ncc(C(F)F)c(-n3cc(CC(C)(C)O)cn3)n2)cc1 [Example 66] | ≥ 100 | 10 to 100 | 10 to 100 | 10 to 100
16 | CNS(=O)(=O)c1ccc(Nc2nccc(-n3cc(CC(C)(C)O)cn3)n2)cc1 [Example 67] | ≥ 100 | 10 to 100 | ≥ 100 | ≥ 100
17 | CNS(=O)(=O)c1ccc(Nc2ncc(Br)c(-n3cc(CC(C)(C)O)cn3)n2)cc1 [Example 68] | 10 to 100 | ≤ 10 | 10 to 100 | 10 to 100

Row | SMILES | IC50 (CDK1/cyclinB1) [nM] | IC50 (CDK2/cyclinE1) [nM] | IC50 (CDK4/cyclinD3) [nM] | IC50 (CDK6/cyclinD3) [nM]
18 | CNS(=O)(=O)c1ccc(Nc2ncc(C(F)(F)F)c(-n3ncc(CC(C)(C)O)c3C)n2)cc1 [Example 69] | ≥ 100 | 10 to 100 | ≥ 100 | ≥ 100
19 | CNS(=O)(=O)c1ccc(Nc2ncc(C(F)(F)F)c(-n3cc(CC(C)(C)O)c(C)n3)n2)cc1 [Example 70] | ≥ 100 | 10 to 100 | ≥ 100 | ≥ 100
20 | CC(C)(O)Cc1cnn(-c2nc(Nc3ccc(S(N)(=O)=O)cc3)ncc2C(F)(F)F)c1 [Example 71] | 10 to 100 | ≤ 10 | ≤ 10 | 10 to 100
21 | CNS(=O)(=O)c1ccc(Nc2ncc(C(F)(F)F)c(-n3cc(CC(C)(C)N)cn3)n2)cc1 [Example 72, 4-[[4-[4-(2-amino-2-methyl-propyl)pyrazol-1-yl]-5-(trifluoromethyl)pyrimidin-2-yl]amino]-N-methyl-benzene sulfonamide] | 10 to 100 | ≤ 10 | 10 to 100 | ≥ 100
22 | CC(C)(O)Cc1cnn(-c2nc(Nc3ccc(S(=O)(=O)NC4CC4)cc3)ncc2C(F)(F)F)c1 [Example 73] | ≥ 100 | 10 to 100 | 10 to 100 | 10 to 100
23 | CNS(=O)(=O)c1ccc(Nc2ncc(C(F)(F)F)c(-n3cc(C4CCN(C)CC4)cn3)n2)cc1 [Example 80, N-methyl-4-[[4-[4-(1-methyl-4-piperidyl)pyrazol-1-yl]-5-(trifluoromethyl)pyrimidin-2-yl]amino]benzene sulfonamide] | 10 to 100 | ≤ 10 | 10 to 100 | 10 to 100
24 | CNS(=O)(=O)c1ccc(Nc2ncc(C(F)(F)F)c(-n3cc(C4CCN(S(C)(=O)=O)CC4)cn3)n2)cc1 [Example 81] | 10 to 100 | 10 to 100 | 10 to 100 | 10 to 100
25 | CNS(=O)(=O)c1ccc(Nc2ncc(C(F)(F)F)c(-n3cc(C4CCN(C(C)C)CC4)cn3)n2)cc1 [Example 82] | 10 to 100 | ≤ 10 | 10 to 100 | ≥ 100
26 | CNS(=O)(=O)c1ccc(Nc2ncc(C(F)(F)F)c(-n3cc(N4CCN(C)CC4)cn3)n2)cc1 [Example 83] | ≥ 100 | ≤ 10 | ≥ 100 | ≥ 100
27 | CNS(=O)(=O)c1ccc(Nc2ncc(C(F)(F)F)c(-n3cc(CN4CCNCC4)cn3)n2)cc1 [Example 84] | ≥ 100 | 10 to 100 | ≥ 100 | ≥ 100
28 | CNS(=O)(=O)c1ccc(Nc2ncc(C(F)(F)F)c(-n3cc(N4CCNCC4)cn3)n2)cc1 [Example 85] | 10 to 100 | ≤ 10 | 10 to 100 | ≥ 100
29 | CNS(=O)(=O)c1ccc(Nc2ncc(C(F)(F)F)c(-n3cc(-c4ccoc4)cn3)n2)cc1 [Example 86] | ≥ 100 | 10 to 100 | ≥ 100 | ≥ 100
30 | CNS(=O)(=O)c1ccc(Nc2ncc(C(F)(F)F)c(-n3cc(N4CCCC4)cn3)n2)cc1 [Example 87, N-methyl-4-[[4-(4-pyrrolidin-1-ylpyrazol-1-yl)-5-(trifluoromethyl)pyrimidin-2-yl]amino]benzene sulfonamide] | ≥ 100 | 10 to 100 | ≥ 100 | ≥ 100
31 | CNS(=O)(=O)c1ccc(Nc2ncc(C(F)(F)F)c(-n3cc(N4CCCC4=O)cn3)n2)cc1 [Example 88, N-methyl-4-[[4-[4-(2-oxopyrrolidin-1-yl)pyrazol-1-yl]-5-(trifluoromethyl)pyrimidin-2-yl]amino]benzene sulfonamide] | ≥ 100 | 10 to 100 | ≥ 100 | ≥ 100
32 | CNS(=O)(=O)c1ccc(Nc2ncc(C(F)(F)F)c(-n3cc([C@H]4CCCN4)cn3)n2)cc1 [Example 91, (R)—N-methyl-4-((4-(4-(pyrrolidin-2-yl)-1H-pyrazol-1-yl)-5-(trifluoromethyl)pyrimidin-2-yl)amino)benzenesulfonamide] | 10 to 100 | ≤ 10 | 10 to 100 | 10 to 100
33 | CNS(=O)(=O)c1ccc(Nc2ncc(C(F)(F)F)c(-n3cc([C@@H]4CCNC4)cn3)n2)cc1 [Example 94, (S)—N-methyl-4-((4-(4-(pyrrolidin-3-yl)-1H-pyrazol-1-yl)-5-(trifluoromethyl)pyrimidin-2-yl)amino)benzenesulfonamide] | 10 to 100 | ≤ 10 | 10 to 100 | ≥ 100
